Data from patent publication US7312248B2, “Control of parasites in animals by the use of novel trifluoromethanesulfonanilide oxime ether derivatives” (Schering-Plough Animal Health Corporation, priority 2004, dated 2007).

System: cat flea (Ctenocephalides felis)
Assay: Ctenocephalides felis adulticide assay: dose response (LC50)
Assay type: in vivo
How it was run: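 Groups of 15 adult cat fleas, 3–7 days post-emergence, were exposed for 24 h at 25° C and 75% humidity to glass flask bases coated with six serial doses in acetone and dried for 24 h. Mortality was scored at 8 and 24 h, and LC50 was the surface-treatment concentration killing 50%.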

In the case of `CC/C(=N\OCc1ccc(C(F)(F)F)cc1)c1cc(Cl)ccc1NS(=O)(=O)C(F)(F)F` [Compound 9], the “C. felis LC50” value (Laboratory 1 C data) is reported as 0.1 μg/cm^2 and the “C. felis LC50” value (Laboratory 2 D data) is reported as 0.01 μg/cm^2.
With `CC/C(=N\OCc1ccc(Cl)cc1)c1cc(Cl)ccc1NS(=O)(=O)C(F)(F)F` [Compound 11, N-{4-chloro-2-[1-(4-chlorobenzyloxyimino)propyl]phenyl}trifluoromethanesulfonamide] the “C. felis LC50” value (Laboratory 1 C data) was 0.1 μg/cm^2 and the “C. felis LC50” value (Laboratory 2 D data) was 0.01 μg/cm^2.
